Reference: patent publication US20240360089A1, “Metabolically Stable HDAC Inhibitors with Trifluoromethylpyruvamide as Metal-Binding Group” (The University of Toledo, priority 2023, published 2024)
Like-named read-outs stand apart in the source and are kept apart here.

What was measured:
HCT116 cells = assay: Growth inhibition / cell viability assay (methylene blue), HCT116; format: cell-based, human; conditions: for IC50: Homo sapiens, HCT-116
Experimental: (§1) Cell feasibility was examined using methylene blue staining. Cells were plated at a rate of 5000/well in 96 well plates (n=3) respectively and treated the next day. Three days after treatment, cells were fixed/stained in methylene blue saturated in 50% ethanol for 30 min at room temperature. Excessive water was used to wash off extra dye from the plates.

[1] = system: NCI-H522 lung cancer cell line; assay: Growth inhibition / cell viability assay (methylene blue), NCI-H522; format: cell-based; conditions: Homo sapiens
Experimental: as §1

WI38 cells = assay: Cell survival assay, normal cell line WI38; format: cell-based; conditions: Homo sapiens, WI-38, FIG. 14A, maximum 30 μM
Source text: (§2) This reaffirms the selectivity of TFPAs for cancer cells over normal cells.
(§3) HCT116 human colon cancer cells, NCI-H522 human lung cancer cells, HT1080 fibrosarcoma cells, HeLa cervical cancer cells, U2OS osteosarcoma cells, MDA-MB-231 and MDA-MB-468 breast cancer cells, WI38 diploid human cell line, and human retinal pigment epithelial RPE cells were preserved in Dulbecco's Modified Eagle's medium (Mediatech, Inc.) supplemented with 10% calf serum (Atlanta Biologicals) or 10% fetal bovine serum (Gemini Bio-Products #100-106) and 1000 U/ml of both Penicillin and Streptomycin (Mediatech, Inc.) at 37° C. with 5% CO2. Cell feasibility was examined using methylene blue staining. Cells were plated at a rate of 5000/well in 96 well plates (n=3) respectively and treated the next day. Three days after treatment, cells were fixed/stained in methylene blue saturated in 50% ethanol for 30 min at room temperature. Excessive water was used to wash off extra dye from the plates.

RPE cells = assay: Cell survival assay, normal cell line RPE; format: cell-based; conditions: Homo sapiens, FIG. 14A, maximum 30 μM
Source text: as §2, §3

[2] = system: HT1080 fibrosarcoma cell line; assay: Growth inhibition assay (methylene blue), HT1080; format: cell-based; conditions: Homo sapiens, HT-1080, Table 4, unit inferred
Experimental: as §1

[3] = system: HeLa cervical cancer cell line; assay: Growth inhibition assay (methylene blue), HeLa; format: cell-based; conditions: Homo sapiens, Table 4, unit inferred
Experimental: as §1

[4] = system: U2OS osteosarcoma cell line; assay: Growth inhibition assay (methylene blue), U2OS; format: cell-based; conditions: Homo sapiens, Table 4, unit inferred
Experimental: as §1

[5] = system: MDA-MB-468 breast cancer cell line; assay: Growth inhibition assay (methylene blue), MDA-MB-468; format: cell-based; conditions: Homo sapiens, Table 4, unit inferred
Experimental: as §1

[6] = system: MDA-MB-231 breast cancer cell line; assay: Growth inhibition assay (methylene blue), MDA-MB-231; format: cell-based; conditions: Homo sapiens, Table 4, unit inferred
Experimental: as §1

sixty cell lines [7] = assay: NCI 60 cell five-dose assay; format: cell-based; conditions: Total Growth Inhibition
PARP1 = assay: Western blot analysis of PARP1 cleavage in HCT116 cells; format: cell-based, human; conditions: HCT116 cells treated for 24 h; measure of caspase dependent cell death
Experimental: FIG. 13: Western blot analysis of PARP1 cleavage. HCT116 cells were treated with compounds 83, 84, and 85 at the indicated concentrations for 24 hr. Western blots were probed with an antibody that recognizes a cleaved form of PARP (Cell Signaling Technology 5626) as a measure of caspase dependent cell death.
To determine whether the compounds herein induced apoptosis, the enzyme Poly (ADP ribose) polymerase 1 (PARP1) was analyzed by western blotting. Caspase-dependent proteolytic cleavage of PARP1 is one of the hall marks of apoptosis and antibodies that specifically recognize the cleavage products are available. […] HCT116 cells were treated with compounds 83, 84, and 85 for 24 h.
(§4) NCI-H522 cell pellets obtained were lysed using lysis buffer containing 50 mM Tris (pH 7.4), 150 mM NaCl, 0.5% NP-40, (supplemented with 1 μg/ml aprotinin, 2 μg/ml leupeptin, 1 μg/ml pepstatin A, 1 mM DTT, and […]) for 30 minutes on ice and centrifuged at 13×10^3 g for 25 minutes at 4° C. The protein levels of the obtained lysates were normalized using BCA Protein Assay Kit (Pierce) and separated by SDS-polyacrylamide gel electrophoresis (12.5% acrylamide). Transfer to polyvinylidene difluoride membranes (Millipore) was followed by obstruction of membranes with blocking buffer containing 5% (w/v) non-fat dry milk dissolved in PBST [1×PBS containing 0.05% (v/v) Tween 20] for 1 hour at room temperature. Membranes were then incubated with corresponding primary antibodies overnight at 4° C. The membranes were then washed (3×15 min each) with PBST and incubated with secondary antibodies conjugated to horse-radish peroxidase, obtained from Biorad, and used at a dilution of 1:10,000. Bound antibodies were detected using enhanced chemiluminescence (Biorad).

sixty cell lines [8] = assay: NCI 60 cell one-dose assay; format: cell-based; conditions: result in words
[9] = system: acetyl-H3 and pan-acetyl-lysine; assay: Hyperacetylation assay by western blot; format: cell-based, human; conditions: […], 5, and 10 μM, dose dependent
Experimental: The hallmark of HDAC inhibition is the hyperacetylation of several proteins which are substrates for HDACs. Thus, histone H3 hyperacetylation assay of some active compounds was carried out by western blot using antibodies for Histone H3 and pan-acetyl lysine.
as §4

[10] = S9 fraction metabolic stability assay (LC-ESI-MS); format: in vitro ADME; conditions: human liver S9 fraction
Source text: Previous studies established that trifluoromethyl ketones are metabolically unstable and reduced in vivo to trifluoromethyl alcohols (TFMAs). This metabolic reduction caused a major loss in activity. […] It was believed that in TFPAs, the hydrate form of the ketone is stabilized compared to TFMKs, and is therefore less susceptible to reductive metabolism. […] Metabolic stability studies are primarily conducted using liver microsomal assays, as the predominant cytochrome P450 enzymes present in them are responsible for the metabolism of most xenobiotics in the human body. However, P450 transformations are mostly oxidative in nature, precluding their use to assess the stability of ketone drugs against reductive metabolism. […] Thus, using a liver extract containing both cytosol and microsomal enzymes would be more appropriate for this assay. This was accomplished by using the S9 fraction, which is basically the supernatant obtained from centrifugation of hepatocytes at 9000 g and contains both liver cytosol and microsomal enzymes. LC-ESI-MS was used to monitor the reduction of TFPA 60 over time and it was compared with TFMK 91.
A protocol similar to the one previously employed by others using Human Liver S9 fractions instead of liver microsomes was used for the metabolism studies. The assay was initiated by incubating a mixture of the substrate (0.02 mM), buffer (0.1M), and NADPH (1 mM) at 37° C. for ten minutes, followed by addition of the S9 fraction (0.5 mg) to the mixture and gentle mixing. The total volume of the reaction mixture was maintained at 1 mL. […] The reactions in the aliquots were terminated by adding an equal volume of ethyl acetate, mixing thoroughly, and transferring into micro centrifuge tubes. They were vortexed for 2 minutes and then subjected to centrifugation at 10,000×g for 15 minutes to remove the proteins. The top organic layers were extracted and evaporated under reduced pressure. The organic residues from the aliquots were dissolved in methanol first, then diluted 1:1 with water, and analyzed using LC-ESI-MS. A 450 μL aliquot of compound 60 with concentration of 0.02 mM contains 9 nanomoles, which after evaporation, was dissolved in 500 μL of methanol to give 18 μM in concentration of 60. This was diluted 1:1 with water to give a final concentration of 9 μM, which was used for LC-ESI-MS. Similarly, 200 μL of TFMK 91 at a concentration of 0.02 mM contains 4 nanomoles, which after removing ethyl acetate, and dissolving in 250 μL of methanol gives 16 μM concentration of 91. This was diluted 1:1 with water to give 8 μM final concentration for LC-ESI-MS.
The solvent flow rate was 0.2 mL/min, and the sample injection volume was 20 μL. […]

[11] = stated in the method as reason for the sampling interval; cited from earlier work
[12] = cap group SAR, HCT116 cell line, maximum concentration of 40 μM, read-out: IC50
[13] = Table 4, growth inhibition, unit inferred, read-out: IC50 H522

COc1ccc(NC(=O)CCCCCCNC(=O)C(O)(O)C(F)(F)F)cc1 [Compound 55, N-(4-methoxyphenyl)-7-(3,3,3-trifluoro-2,2-dihydroxypropanamido)heptanamide]
IC50 (HCT116 cells; cancer vs normal cells study, FIG. 14A, maximum 30 μM, read-out: IC50 HCT116): 3.13 µM
IC50 (HCT116 cells; [12]): 4.52 µM
cell survival HCT116 (HCT116 cells; maximum concentration of 30 μM, FIG. 14B): < 20%
IC50 ([1]; cancer vs normal cells study, FIG. 14A, maximum 30 μM, read-out: IC50 NCI-H522): 8.05 µM
IC50 (WI38 cells): > 30 µM
IC50 (RPE cells): > 30 µM

O=C(CCCCCCNC(=O)C(O)(O)C(F)(F)F)Nc1nc2ccccc2s1 [Compound 61, N-(benzo[d]thiazol-2-yl)-7-(3,3,3-trifluoro-2,2-dihydroxypropanamido)heptanamide]
IC50 (HCT116 cells; [12]): 2.37 µM
IC50 [1, 13]: 2.86 ± 0.36 µM
IC50 [2]: 2.65 ± 0.21 µM
IC50 [3]: 1.52 ± 0.23 µM
IC50 [4]: 1.41 ± 0.18 µM
IC50 [5]: 1.31 ± 0.18 µM
IC50 [6]: 1.83 ± 0.35 µM
TGI (sixty cell lines [7]): 21.37 µM

COc1ccc2sc(NC(=O)CCCCCCNC(=O)C(O)(O)C(F)(F)F)nc2c1 [Compound 83, N-(5-methoxybenzo[d]thiazol-2-yl)-7-(3,3,3-trifluoro-2,2-dihydroxypropanamido)heptanamide]
IC50 (HCT116 cells; [12]): 2.18 µM
IC50 [1, 13]: 3.23 ± 0.41 µM
IC50 [2]: 2.28 ± 0.47 µM
IC50 [4]: 3.29 ± 0.46 µM
IC50 [5]: 3.65 ± 0.11 µM
IC50 [6]: 0.81 ± 0.1 µM
TGI (sixty cell lines [7]): 12.3 µM
PARP1 cleavage (cleaved PARP1) (PARP1): Dose-dependent elevation of cleaved PARP1 was detectable

COc1ccc(-c2cnc(NC(=O)CCCCCCNC(=O)C(O)(O)C(F)(F)F)s2)cc1 [Compound 84, N-(5-(4-methoxyphenyl)thiazol-2-yl)-7-(3,3,3-trifluoro-2,2-dihydroxypropanamido)heptanamide]
cytostatic / cytotoxic activity in NCI 60 assays (sixty cell lines [8]): cytotoxic effects
TGI (sixty cell lines [7]): 8.51 µM
levels of acetylated H3 [9]: increased levels
levels of pan-acetyl-lysine [9]: increased levels
PARP1 cleavage (cleaved PARP1) (PARP1): Absence of PARP1 cleavage

O=C(CCCCCCC(=O)C(F)(F)F)Nc1ccccc1 [Compound 91, reference compound]
IC50 (HCT116 cells; [12]): 10.1 µM
time to complete disappearance (metabolic reduction) of parent M+1 peak ([10]; NADPH, 37° C., LC-ESI-MS, aliquots every 15 minutes): ≤ 15 min
metabolic reduction to the alcohol ([10]; result in words): quantitative biological reduction
half-life [11]: less than 30 minutes
